The NIST ThermoML archive (doi:10.1021/je034048e)

Assay: molar heat capacity at constant pressure
Settings: 101.33 kPa

CCCCCCCC/C=C/CCCCCCCC(=O)OCC(COC(=O)CCCCCCC/C=C/CCCCCCCC)OC(=O)CCCCCCC/C=C/CCCCCCCC [trielaidin]
Crystal
Settings	molar heat capacity at constant pressure [J/K/mol]
246.79 K	1245.8
248.93 K	1256.4
251.06 K	1268.8
253.19 K	1279.4
255.3 K	1292.7
257.41 K	1305.1
259.5 K	1320.2
261.59 K	1332.6
263.67 K	1345.9
265.75 K	1360.9
267.81 K	1374.2
269.86 K	1389.2
271.91 K	1403.4
273.95 K	1419.3
275.98 K	1437.9
278 K	1454.8
280.02 K	1471.6
282.03 K	1489.3
284.04 K	1509.7
288.03 K	1543.3
290.02 K	1560.1
292 K	1580.5
293.98 K	1601.7
295.95 K	1622.1
297.92 K	1646.9
299.88 K	1669.9
301.84 K	1708.9
303.79 K	1742.5
305.74 K	1795.7
307.67 K	1890.4
309.58 K	2118.8

Small (less than 1 g) adiabatic calorimetry
Settings	molar heat capacity at constant pressure [J/K/mol]
248.9 K, Metastable crystal	1565.4
250 K, Crystal	1266.2
250 K, Metastable crystal	1576.1
251.38 K, Metastable crystal	1586.7
253.84 K, Metastable crystal	1607.9
256.3 K, Metastable crystal	1629.2
258.74 K, Metastable crystal	1653.1
260 K, Crystal	1319.3
260 K, Metastable crystal	1664.6
261.18 K, Metastable crystal	1675.2
263.6 K, Metastable crystal	1697.4
266.01 K, Metastable crystal	1717.7
268.41 K, Metastable crystal	1732.8
270 K, Crystal	1390.1
270 K, Metastable crystal	1744.3
270.81 K, Metastable crystal	1742.5
273.2 K, Metastable crystal	1738.1
280 K, Crystal	1469.8
280 K, Metastable crystal	1815.1
288 K, Crystal	1549.5
288 K, Metastable crystal	1886
290 K, Crystal	1558.4
298.15 K, Crystal	1646.9
300 K, Crystal	1673.5
310 K, Crystal	1762
314.83 K, Crystal	1806.3
314.83 K, Liquid	1877.1
317.71 K, Liquid	1884.2
318.99 K, Liquid	1886.9
320 K, Liquid	1894.8
320.03 K, Liquid	1891.3
321 K, Liquid	1895.7
322.34 K, Liquid	1893.9
323.01 K, Liquid	1896.6
324.66 K, Liquid	1901.9
325.03 K, Liquid	1902.8
326.98 K, Liquid	1907.2
327.05 K, Liquid	1906.3
329.07 K, Liquid	1911.6
329.29 K, Liquid	1913.4
330 K, Liquid	1912.5
331.09 K, Liquid	1916.1
331.61 K, Liquid	1918.7
333.11 K, Liquid	1918.7
333.92 K, Liquid	1922.3
335.13 K, Liquid	1922.3
336.24 K, Liquid	1926.7
337.15 K, Liquid	1926.7
338.55 K, Liquid	1932.9
339.17 K, Liquid	1933.8
340.87 K, Liquid	1940.9
343.19 K, Liquid	1946.2
345.51 K, Liquid	1950.6
347.83 K, Liquid	1954.1
350.15 K, Liquid	1963
